Assay [1] has as its system protease B. Briefly: Activation and inhibition of protease B (stated properties). It is filed as biochemical, Kluyveromyces lactis IFO 1903.
The subject of assay [2] is protease specific for basic amino acid residue from Sporobolomyces odrus IFO 1597. Briefly: Behavior of Sporobolomyces protease against various inhibitors (residual activity). In kind it is biochemical. As to conditions: pH 7, 30 min, 1000 µM.
Assay [3] concerns protease A. Put plainly: Activation and inhibition of protease A (stated properties). In kind it is biochemical, Sporobolomyces odrus IFO 1597. Here is the method: The enzymes was incubated in the absence of any substrate in standard reaction mixtures containing various inhibitors at 25° C. for 30 minutes. After adding the substrate, the residual activity of each enzyme was determined.
The enzyme was reacted in the standard reaction mixture while varying the type and concentration of surfactants.
The activity of the enzyme was determined in the presence of 0.1% of EDTA while varying the concentration of CaCl2. […] The concentration of free CaCl2 was calculated from the apparent dissociation constant (K1) of EDTA for CaCl2 (log K1 =7.3).

For assay [4], the system named is protease specific for basic amino acid residue from Sporobolomyces odrus IFO 1597. It is filed as biochemical. How it is done:
The enzyme was treated in the standard reaction mixture containing 1 mM of EDTA and free from any substrate at 25° C. for 30 minutes. Various metal ions were added thereto each in such an amount as to give a concentration of 1.5 mM and the mixture was incubated at 30° C. for five minutes. Then the activity of each case was determined.

The subject of assay [5] is Benz-I (protease specific for basic amino acid residue). In kind it is biochemical, Kluyveromyces lactis IFO 1903. Here is the method:
Benz-I was incubated in the presence of 10 mM of EDTA at 4° C. for one hour. When the enzyme was completely inactivated, the culture was dialyzed against 10 mM tris hydrochloride buffer solution (pH 7.0) containing 0.2% of Lubrol PX to thereby completely remove the EDTA. The enzyme mixture thus dialyzed was examined with respect to the recovery of the activity in reaction mixtures containing 0.5 mM of various metal ions.

The test system is the same in assay [6]. Briefly: Cleavage of peptides by Benz-I, HPLC and amino acid composition of fragments. It is filed as biochemical, Kluyveromyces lactis IFO 1903. How it is done:
The composition of the employed reaction mixture and the examination conditions were as follows. Namely, 500 μl of a reaction mixture containing 25 μmol of tris hydrochloride buffer solution (pH 7.0), 0.25 μmol of CaCl2, 5 mg of Lubrol PX, 100 μg of NaN3, each peptide at various concentrations and Benz-I at various concentrations was allowed to react at 30° C. for 20 hours.
50-μl portions of the reaction mixture were sampled after the reaction for 0 and 20 hours and 50 μl of a reaction terminating agent comprising 0.2% of TFA and 10 mM of EDTA was added thereto. The resulting mixture was analyzed by HPLC. The HPLC was conducted by CH3 CN gradient elution with the use of an Ultron NC18 column (0.45×15 cm) or a TSK gel ODS-80TM column (0.46×25 cm) in the presence of 0.1% of TFA.
The residual reaction mixture was chromatographed under the same conditions as those employed in the above analysis and main peaks were fractionated. The fractionated eluate was evaporated to dryness on a centrifugal evaporator and decomposed with hydrochloric acid at 110° C. for 24 hours. Then each fragment was assumed from the amino acid composition.

The mark [7] stands for this setting: 200 mU Benz-I, 50 nmol peptide, 30° C., 20 hours.

“Also recorded” adds a separate entry of the source. Where two headings read alike, the source gives them in different places. Square brackets hold non-standard residues; d marks the D form. Ends that are not written are not given here. Peptide text beside a SMILES is read from it. pGlu = O=C1CC[C@@H](C(=O)O)N1

Consider `O=C(O)CN(CCN(CC(=O)O)CC(=O)O)CC(=O)O` [ethylenediaminetetraacetic acid], for which, in assay [1], the “inhibition of protease B” value is “inhibited”. The “relative activity (residual)” value in assay [2] was 2%. Further, the “inhibition of protease A” value in assay [3] is “inhibited”. Also, the Relative activity in assay [4] worked out at 3%; in assay [4] (pH 7, 1000 µM) it was 0%; in assay [5], 0.36%; in assay [5] (10000 µM), 0.09%.
With “Tyr-Gly-Gly-Phe-Leu-Arg-Arg-Ile-Arg-Pro-Lys-Leu-Lys (YGGFLRRIRPKLK; printed: Tyr-Gly-Gly-Phe-Leu-Arg-Arg-Ile-Arg-Pro-Lys-Leu-Lys) [Dynorphin A (1-13)]”, in assay [6], the “Fragment obtained (assumed from amino acid composition) after reaction with Benz-I” value (“Fragment obtained” below) was “Ile-Arg-Pro-Lys-Leu-Lys; also recorded: Try-Gly-Gly-Phe-Leu-Arg-Arg”.
On the same count and under the same terms, the result for YGGFMRRVRPE [BAM-12P] reads “Val-Gly-Arg-Pro-Glu”.
As for `CC[C@H](C)[C@H](NC(=O)[C@H](Cc1c[nH]c2ccccc12)NC(=O)[C@@H]1CCCN1C(=O)[C@H](CCCNC(=N)N)NC(=O)[C@H](CCCCN)NC(=O)CNC(=O)[C@@H]1CCC(=O)N1)C(=O)N[C@@H](CC(C)C)C(=O)O` [Xenopsin] ([pGlu]GKRPWIL-OH), the “Fragment obtained” value in assay [6] (setting [7]) was “pGlu-Gly-Lys-Arg”.
Turning to “YGGFMRRVGRPEWWMDYQKRYGGFL [3200-dalton Adrenal Peptide E]”, the “Fragment obtained” value in assay [6] is “^1 Tyr-Gly-Gly-Phe-Met-Arg-^7 Arg; also recorded: ^21 Tyr-Gly-Gly-Phe-^25 Leu”.
In the case of “RKRSRKE [protein kinase-related peptide]”, the “Fragment obtained” value in assay [6] (setting [7]) was “Ser-Arg-Lys-Glu”.

(Values after US5053333A, “Protease” (M & D Research Co., Ltd., priority 1988, dated 1991).)
